The assay deals with T1, Sodium/glucose cotransporter 1 (Homo sapiens, UniProt P13866).
T1 sequence (P13866 whole entry): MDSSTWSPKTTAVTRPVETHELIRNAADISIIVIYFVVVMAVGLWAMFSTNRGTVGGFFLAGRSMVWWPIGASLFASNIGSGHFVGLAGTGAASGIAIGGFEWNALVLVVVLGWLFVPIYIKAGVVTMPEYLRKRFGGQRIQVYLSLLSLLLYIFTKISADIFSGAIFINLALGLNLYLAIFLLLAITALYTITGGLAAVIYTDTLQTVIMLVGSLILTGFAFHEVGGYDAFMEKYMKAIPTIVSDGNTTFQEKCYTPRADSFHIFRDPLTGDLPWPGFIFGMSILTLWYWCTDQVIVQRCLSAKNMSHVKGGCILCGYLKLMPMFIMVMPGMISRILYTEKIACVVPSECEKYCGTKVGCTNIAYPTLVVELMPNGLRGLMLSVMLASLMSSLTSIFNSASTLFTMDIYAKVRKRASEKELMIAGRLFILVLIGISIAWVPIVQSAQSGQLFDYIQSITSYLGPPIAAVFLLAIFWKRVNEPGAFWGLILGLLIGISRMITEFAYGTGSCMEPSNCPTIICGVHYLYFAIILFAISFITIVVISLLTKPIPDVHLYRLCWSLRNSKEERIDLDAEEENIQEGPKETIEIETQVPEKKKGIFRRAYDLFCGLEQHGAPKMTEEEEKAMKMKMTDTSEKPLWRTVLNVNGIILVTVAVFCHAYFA
Kind of assay: Inhibition Assay: The stable cell line expressing human SGLT1 was seeded at 5x10^4 cells/well on BioCoat Poly-D-Lysine 96 well plate with Lid (Becton Dickinson and Company) and cultured at 37 C. under 5% CO2 overnight. The medium was replaced with 100 uL/well of a Na (+) buffer (140 mM choline chloride, 2 mM KCl, 1 mM MgCl2, 1 mM CaCl2, 10 mM HEPES, 5 mM Tris, pH7.4) followed by incubation for 20 minutes at 37 C. under 5% CO2. After removing the Na (+) buffer, a test compound solution which was prepared from Na (+) buffer (140 mM NaCl, 2 mM KCl, 1 mM MgCl2, 1 mM CaCl2, 10 mM HEPES, 5 mM Tris, pH7.4) containing BSA was added thereto at 40 uL/well. In addition, Na (+) buffer containing 8 kBq of 14C-AMG and 2 mM AMG was added thereto at 40 uL/well, and was mixed well. Na (+) buffer containing BSA was added to a blank well at 40 uL/well and additionally adding a Na (+) buffer containing 8 kBq of 14C-AMG and 2 mM AMG, and was mixed well.

Broadly, the IC50 is the concentration needed to halve the response being measured. Molecule `O=C1C[C@H](C(=O)Nc2cc(-c3cccc(COCC(F)(F)F)c3)n(-c3ccc(F)cc3)n2)CN1` gave an IC50 of 22 nM. That is a double-digit nanomolar value.
